Entries after “also recorded” stand apart in the source; their conditions may differ. Structures can show the parent of a compound that is named as a salt.
Assay: Stability of the anhydrous moxifloxacin hydrochloride to humidity and drying (XRPD, water content)
Type: physicochemical
Excerpt: The water contents of the moxifloxacin hydrochloride and of the excipients can be determined using any one of the analytical methods described in the prior art. For example, one may use of the Karl Fisher titration method as described in the European Pharmacopoeia Chapter 2.5.12 (Ph. Eur. 2.5.12) using the Metrohm 7012 KF Titrino® titrator.
The anhydrous moxifloxacin hydrochloride is exposed for several hours to a relative humidity of approximately 40%, which causes an increase in its water content. At the end of the exposure, the water content of the active ingredient is approximately 4% by weight. […] Such results illustrate the low stability of the anhydrous moxifloxacin hydrochloride in the presence of a humidity level of 40%. The conversion of the anhydrous moxifloxacin hydrochloride into a hydrate form becomes significant for a water content above 2%.

Compound: COc1c(N2C[C@@H]3CCCN[C@@H]3C2)c(F)cc2c(=O)c(C(=O)O)cn(C3CC3)c12 [anhydrous moxifloxacin hydrochloride, 1-cyclopropyl-6-fluoro-1,4-dihydro-8-methoxy-7-[(4aS,7aS)-octahydro-6H-pyrrolo[3,4-b]pyridin-6-yl]-4-oxo-3-quinolinecarbolic acid]
- water content above which conversion of the anhydrous form into a hydrate form becomes significant: above 2%
- water content after drying of the hydrate form obtained (drying for several hours): less than 1 % by weight
- polymorphic form by XRPD after drying of the hydrate form (drying for several hours, FIG. 2 curve 2): reconvert the hydrate formed into an anhydrous polymorphic form; also recorded: conversion into the starting anhydrous form
- water content at the end of the exposure (exposed for several hours to a relative humidity of approximately 40%): approximately 4 % by weight
- polymorphic form by XRPD after humidity exposure (several hours at relative humidity of approximately 40%, FIG. 2 curve 3): has a tendency to convert into hydrate; also recorded: converted into a hydrate polymorphic form
